Source: patent US5852017A, “2,3(1H,4H)-quinoxalinediones” (BASF Aktiengesellschaft, priority 1992, dated 1998)

How the values were obtained:
AMPA receptors = assay: Binding of 3H-AMPA to rat cerebra membrane material; conditions: displacement of 3H-AMPA, membrane material from rat cerebra, incubated on ice for 60 minutes
Experimental: (§1) The pharmacological activity of the compounds I and I' according to the invention was investigated on membrane material isolated from rat cerebra. To do this, the membrane material was treated in the presence of the compounds according to the invention with the radio-labeled substances ^3 H-2-amino-3-hydroxy-5-methyl-4-isoxazolepropionic acid (^3 H-AMPA) and ^3 H-5,7-dichlorokynurenic acid, which bind to specific receptors (AMPA and NMDA (N-methyl-D-aspartate) receptors respectively). The radioactivity of the treated membranes was then measured by scintillation counting. The amounts of bound ^3 H-AMPA and ^3 H-5,7-dichlorokynurenic acid, or the amounts of these radiolabeled substances displaced in each case, can be determined from the bound radioactivity. The resulting dissociation constant KI (I=inhibitor), which is a measure of the displacement by the active substance according to the invention, was calculated by iterative non-linear regression analysis with the statistical analysis system (SAS) on an IBM computer, similar to the "Ligand" program of P. J. Munson and D. Rodbard (Analytical Biochem. 107, (1980) 220, Ligand: Versatile Computerized Approach for Characterization of Ligand Binding Systems).
1. Binding of ^3 H-2-amino-3-hydroxy-5-methyl-4-isoxazolepropionic acid (^3 H-AMPA) […]

[1] = target: NMDA (N-methyl-D-aspartate) receptors; assay: Binding of 3H-5,7-dichlorokynurenic acid to rat cerebra membrane material; conditions: displacement of 3H-5,7-dichlorokynurenic acid, membrane material from rat cerebra, incubated on ice for 30 minutes
Experimental: as §1
2. Binding of ^3 H-5,7-dichlorokynurenic acid […]

| Ki (AMPA receptors) | Ki [1] | Structure (SMILES) |
| --- | --- | --- |
| < 10 µM |  | O=c1[nH]c2cc(Cl)c(-n3cccc3)cc2[nH]c1=O [Example 1, 7-Chloro-6-(1-pyrrolyl)-2,3(1H,4H)-quinoxalinedione] |
|  | < 10 µM | O=c1[nH]c2cc(-n3cccc3)c(C(F)(F)F)cc2[nH]c1=O [Example 2, 6-(1-Pyrrolyl)-7-trifluoromethyl-2,3(1H,4H)-quinoxalinedione] |
